Results published in US20180016596A1, “NUCLEIC ACID CONSTRUCTS, PLANTS COMPRISING SAME AND USES THEREOF IN ENHANCING PLANT PEST RESISTANCE AND ALTERING PLANT MONOTERPENE PROFILE” (Futuragene Israel Ltd., priority 2014, published 2018).

Tested on: Ophelimus maskelli
Test: Free choice experiment: Eucalyptus camaldulensis saplings with monoterpene disks exposed to Ophelimus maskelli gall wasps
Format: in vivo
Details: for Ophelimus maskelli oviposition / number of infected leaves compared to control / Eucalyptus camaldulensis resistance to Ophelimus maskelli infection / number of galls per leaf compared to control: free choice, in words; for Ophelimus maskelli oviposition: compared to controls; for number of infected leaves compared to control: eucalyptol vs mineral oil, geraniol and citronellal vs mineral oil and eucalyptol controls; for number of galls per leaf compared to control: vs mineral oil and eucalyptol controls
Method: Preparation of monoterpene disks—100 μl of pure monoterpene solutions of geraniol, citronellal, eucalyptol (also known as 1,8-cineole, 1,8-epoxy-p-menthane) or mineral oil (Sigma-Aldrich Cat. Nos. G9698, 27470, C80601 or M5904, respectively) were each mixed with 5 ml of Vaseline. The mixed solutions were then spread using a spatula onto 20 mm in diameter filter paper disks (Whatman 3 mm cellulose chromatography papers, Sigma-Aldrich Cat. No. Z742422).
Free choice experiments—The free-choice experiments, were gall wasps were free to choose which plant to infest in a given cage, were carried out with Ophelimus maskelli gall wasp in three net cages of 80 cm×100 cm×150 cm in a greenhouse (28 ±2° C.) as described in Bleeker et al. [Plant Physiol. (2009) 151(2): 925-935], with the following modifications. Four Eucalyptus camaldulensis 3 months old saplings were placed randomly in each cage and 10 disks with either geraniol, citronellal, eucalyptol (1,8-Cineole, used as control) or mineral oil (used as control) were attached by metal wires to the branches of each sapling (10 branches for each sapling) (see FIG. 2) so that each sapling had 10 disks attached with one of the treatments. Next, 500 Ophelimus maskelli female adult wasps were released in the middle of each net cage. One week later the disks were removed from the branches of the saplings, the saplings were taken out of the cage and thereafter the Eucalyptus saplings were transferred to an insect free net house, an outdoor perimeter surrounded by a 50 mesh insect proof net. The plants were maintained in the net house for 6 weeks after inoculation. At the end of the six week period, infection levels were evaluated by counting the number of galls developed on the treated saplings.

[1] = average of 3 cages, leaves with 1-10 galls per leaf
[2] = average of 3 cages, leaves with 10-50 galls per leaf
[3] = average of 3 cages, leaves with 50-100 galls per leaf
[4] = cage 1, leaves with 1-10 galls per leaf, 6 weeks after inoculation
[5] = cage 1, leaves with 10-50 galls per leaf, 6 weeks after inoculation
[6] = cage 1, leaves with 50-100 galls per leaf, 6 weeks after inoculation
[7] = cage 1, total, 6 weeks after inoculation
[8] = cage 2, leaves with 1-10 galls per leaf, 6 weeks after inoculation
[9] = cage 2, leaves with 10-50 galls per leaf, 6 weeks after inoculation
[10] = cage 2, leaves with 50-100 galls per leaf, 6 weeks after inoculation
[11] = cage 2, total, 6 weeks after inoculation
[12] = cage 3, leaves with 1-10 galls per leaf, 6 weeks after inoculation
[13] = cage 3, leaves with 10-50 galls per leaf, 6 weeks after inoculation
[14] = cage 3, leaves with 50-100 galls per leaf, 6 weeks after inoculation
[15] = cage 3, total, 6 weeks after inoculation

Structure (SMILES) | Number of infected leaves [1] | Number of infected leaves [2] | Number of infected leaves [3] | Number of infected leaves (average of 3 cages, total) | Number of infected leaves [4] | Number of infected leaves [5] | Number of infected leaves [6] | Number of infected leaves [7] | Number of infected leaves [8] | Number of infected leaves [9] | Number of infected leaves [10] | Number of infected leaves [11] | Number of infected leaves [12] | Number of infected leaves [13] | Number of infected leaves [14] | Number of infected leaves [15] | Ophelimus maskelli oviposition | number of infected leaves compared to control | Eucalyptus camaldulensis resistance to Ophelimus maskelli infection | number of galls per leaf compared to control
CC12CCC(CC1)C(C)(C)O2 [eucalyptol, 1,8-cineole, reference compound] | 5.333 | 10 | 6 | 21.33 | 4 | 14 | 6 | 24 | 5 | 6 | 6 | 17 | 7 | 10 | 6 | 23 | did not have a negative effect | slight increase |  | 
CC(C)=CCC/C(C)=C/CO [geraniol, (trans)-3,7-Dimethyl-2,6-octadien-1-ol] | 4 | 2 | 1 | 7 | 4 | 3 | 1 | 8 | 4 | 2 | 1 | 7 | 4 | 1 | 1 | 6 | significantly decreased | reduced number of infected leaves | significantly increased | reduced number of galls per leaf
CC(C)=CCCC(C)CC=O (stereo not shown) [citronellal, 3,7-dimethyloct-6-en-1-al] | 1 | 3 | 0 | 4 | 1 | 4 | 0 | 5 | 1 | 2 | 0 | 3 | 1 | 3 | 0 | 4 | significantly decreased | reduced number of infected leaves | significantly increased | reduced number of galls per leaf
